From patent publication US20230045902A1, “COMPOSITION FOR REINFORCING FUNCTION OF STEM CELL” (SCM LIFE SCIENCE CO., LTD., priority 2020, published 2023)

How the values were obtained:
Format in all cases: cell-based
Galectin 1 = Galectin 1 expression change in mesenchymal stem cells by qRT-PCR; conditions: MSC treated 24 hours, Table 1 concentrations; FIG. 5
Source text: 1.3. Confirmation of Change in Galectin 1 Expression According to the Treatment with the Experimental Group Galectin 1 is known as a stem cell potency marker closely related to the high efficacy of stem cells, and it is known that the more the expression increases, the stronger the stem cell function and efficacy. Therefore, in order to further confirm whether the treatment with the experimental group induces the inflammation and immune regulation ability of the mesenchymal stem cells, an experiment was performed to confirm the expression of Galectin 1. After culturing stem cells as in Experimental Example 1, total RNA was isolated using TRIzol (Invitrogen), and then cDNA was synthesized from total RNA using PrimeScript™ reagent Kit with gDNA Eraser (TaKaRa) and qRT-PCR was performed. Using this, a change in the expression of Galectin 1, an indicator of stem cell efficacy, was confirmed, and the result is shown in FIG. 5.

[1] = tested on: Inducible costimulatory ligand (ICOSL); assay: ICOSL expression change in mesenchymal stem cells by qRT-PCR; conditions: MSC treated 24 hours, Table 1 concentrations; FIG. 4
Protocol: Inducible costimulatory ligand (ICOSL) is known to inhibit activated T cells by inducing regulatory T cells. Since the function-enhancing effect of the mesenchymal stem cells according to the treatment with the experimental group was confirmed in Example 1.1, an experiment was performed to additionally confirm whether the treatment with the experimental group induces inflammation and immune regulation ability of the mesenchymal stem cells. After culturing stem cells as in Experimental Example 1, total RNA was isolated using TRIzol (Invitrogen), and then cDNA was synthesized from total RNA using PrimeScript™ reagent Kit with gDNA Eraser (TaKaRa) and qRT-PCR was performed. Through this, the expression change of ICOSL, which is a representative factor of inflammation and immune regulation, was confirmed, and the results are shown in FIG. 4.

[2] = tested on: indoleamine 2,3-dioxygenase (IDO); assay: IDO expression change in mesenchymal stem cells by qRT-PCR; conditions: MSC treated 24 hours, Table 1 concentrations; FIG. 6
Protocol: At 37° C. and 5% CO2 incubator, mesenchymal stem cells in storage state (stored in LN2 tank) were thawed and cultured. At this time, they were cultured in a medium (DMEM, alpha-MEM) containing 10% FBS or 4% hPL. Cells were cultured until confluence reached about 80%. After seeding the cultured mesenchymal stem cells in a 100 mm dish, a candidate material for enhancing the mesenchymal stem cell function was selected.
The selected 20 ng/ml of IL-1β and vitamin B6 and IFN-α at different concentrations were combined, and the effect was confirmed by the change in indoleamine 2,3-dioxygenase (IDO) expression. IDO is known as an immunomodulatory factor that suppresses the proliferation of immune cells such as T cells by changing tryptophan, which is essential for T cell proliferation, into kynurenine. After culturing stem cells, total RNA was isolated using TRIzol (Invitrogen), and cDNA was synthesized from total RNA using PrimeScript™ reagent Kit with gDNA Eraser (TaKaRa), followed by qRT-PCR.
The selected candidate substances and their concentration combinations are shown in Table 1, and they were treated to mesenchymal stem cells for 24 hours, and the function-enhancing effect was confirmed. […]

IFN-γ = IFN-γ secretion in PHA-activated T-cells co-cultured with treated mesenchymal stem cells (IFN-γ kit); conditions: MSC treated 24 hours (Table 1 concentrations), co-cultured 3 days with PHA-activated T-cells; FIG. 3
Source text: As a control group, mesenchymal stem cells that were not treated with the test substance were used.

TSG6 and IDO = assay: Concentration setting of IL-1β in MSC by expression of TSG6 and IDO; conditions: treated in MSC
Protocol: IL-1β, IFN-α and vitamin B6 were selected as candidate substances, and concentrations for function-enhancing were set. When IL-1β was treated in MSC, it was confirmed that the lowest effective concentration capable of increasing the expression of TSG6 and IDO was 20 ng/ml, and this was set as the standard.

Row | Molecule | expression of Galectin 1 (Galectin 1) | expression of ICOSL [1] | IDO expression change [2] | change in IFN-γ secretion compared to the untreated control group (IFN-γ) | lowest effective concentration capable of increasing the expression of TSG6 and IDO (TSG6 and IDO) [ng/mL]
1 | Cc1ncc(CO)c(CO)c1O.Cl [vitamin B6] | did not show a distinct increase | did not show a distinct increase | did not show a distinct expression change | not significant | –
2 | interferon alpha (IFN-α) | – | did not show a distinct increase | – | not significant | –
3 | Interleukin 1 beta (IL-1β) | increased | increased | did not show a distinct expression change | not significant | 20
